Patent US5101054A, “Novel fluorine-containing platinum complex” (priority 1989, dated 1992)
Where two headings read alike, the source gives them in different places.

What was measured:
[1] = system: Mouse leukemia cells L1210; experiment: Experiment 1 anti-tumor activity test in L1210 implanted CDF1 mice; type: in vivo; settings: for T/C: L1210 i.p. implanted CDF1 mice; for Number of survived mice (on 30th day): survivors/total on 30th day
Procedure: Mouse leukemia cells L1210 (1×10^5) were implanted intraperitoneally to CDF1 mice (female, aged: 8 weeks) on the 0 day of implantation. CDDP and CBDCA were used as a reference. The anti-tumor activity of the platinum complexes in L1210 implanted mice were expressed by the T/C value, which was determined according to the following equation, and by the number of mice which survived until the 30th day of implantation. [formula]

[2] = Experiment 3 blood urea nitrogen (BUN) and body weight in ICR mice; settings: for Difference of weights: average weight 12th day vs 1st day; for BUN value: blood on 12th day, control 27.2 ± 1.9
Procedure: (§1) Test compounds were administered to ICR mice (aged: 8 weeks) on the 1st day, the 5th day and the 9th day. The blood was collected therefrom on the 12th day, and the concentrations of blood urea nitrogen (BUN) were determined.
(§2) *Control group: druguntreated normal mouse

[3] = system: cisplatin resistant mouse leukemia cells L1210 (L1210/CDDP); experiment: Experiment 2 growth inhibition of cisplatin resistant L1210/CDDP cells; type: cell-based
L1210 cells = experiment: Experiment 2 growth inhibition of L1210 cells; type: cell-based, mouse; settings: text calls it IC50
Procedure: The drug sensitivity (a) was determined according to the following equation. [formula]

[4] = mouse, in vivo
Procedure: as §1, §2

With `N.N.O=C([O-])C1(C(=O)[O-])CCC1.[Pt+2]` [CBDCA, cisdiamino-1,1-cyclobutanedicarboxylato platinum (II)] the T/C ([1]; dose 12.5 mg/kg) was 139%, the “Number of survived mice (on 30th day)” value ([1]; dose 12.5 mg/kg) was 0/6 and the T/C ([1]; dose 25 mg/kg) was 199%. The “Number of survived mice (on 30th day)” value ([1]; dose 25 mg/kg) was 0/6, the T/C ([1]; dose 50 mg/kg) was 340% and the “Number of survived mice (on 30th day)” value ([1]; dose 50 mg/kg) was 2/6. For the same molecule, the T/C ([1]; dose 100 mg/kg) was 366%, the “Number of survived mice (on 30th day)” value ([1]; dose 100 mg/kg) was 2/6 and the Difference of weights ([2]; dose 100 mg/kg on days 1, 5, 9) was -3.0 g. For the same molecule, the BUN value ([2]; dose 100 mg/kg on days 1, 5, 9) was 21.0 ± 4.0 mg/dL, the “IC50 L1210/CDDP” value [3] was 1.82 µg/mL and the IC50 (L1210 cells) was 0.25 µg/mL.
With `N.N.[Cl][Pt][Cl]` [CDDP, cis-dichlorodiamine platinum (II)] the T/C ([1]; dose 6.25 mg/kg) was 227%, the “Number of survived mice (on 30th day)” value ([1]; dose 6.25 mg/kg) was 0/6 and the T/C ([1]; dose 12.5 mg/kg) was 282%. For the same molecule, the “Number of survived mice (on 30th day)” value ([1]; dose 12.5 mg/kg) was 1/6, the T/C ([1]; dose 25 mg/kg) was 367% and the “Number of survived mice (on 30th day)” value ([1]; dose 25 mg/kg) was 4/6. It also gave a Difference of weights ([2]; dose 18 mg/kg on days 1, 5, 9) of -4.8 g, a BUN value ([2]; dose 18 mg/kg on days 1, 5, 9) of 83.7 mg/dL and a Difference of weights ([2]; dose 25 mg/kg on days 1, 5, 9) of -8.9 g. The BUN value ([2]; dose 25 mg/kg on days 1, 5, 9) was 112.3 ± 16.6 mg/dL and the “IC50 L1210/CDDP” value [3] was 0.50 µg/mL.
In the case of `CC(CN)(CN)C(F)(F)F.O=C([O-])C1(C(=O)[O-])CCC1.[Pt+2]` [Compound of Ex. 2, cis-(2-methyl-2-trifluoromethyl-1,3-propanediamine)-1,1-cyclobutanedicarboxylato platinum (II)], the T/C ([1]; dose 50 mg/kg) is reported as 192%, the “Number of survived mice (on 30th day)” value ([1]; dose 50 mg/kg) is reported as 0/6 and the T/C ([1]; dose 100 mg/kg) is reported as 267%. The “Number of survived mice (on 30th day)” value ([1]; dose 100 mg/kg) was 0/6.
With “cis-dichloro-(2-methyl-2-trifluoromethyl-1,3-propanediamine)platinum (II) [Compound of Ex. 1]” the T/C ([1]; dose 12.5 mg/kg) was greater than 304%, the “Number of survived mice (on 30th day)” value ([1]; dose 12.5 mg/kg) was 3/6 and the T/C ([1]; dose 25 mg/kg) was 375%. The “Number of survived mice (on 30th day)” value ([1]; dose 25 mg/kg) was 6/6, the T/C ([1]; dose 50 mg/kg) was 273% and the “Number of survived mice (on 30th day)” value ([1]; dose 50 mg/kg) was 0/6. The “IC50 L1210/CDDP” value [3] was 0.10 µg/mL, the BUN value ([4]; 25 mg/kg) was 23.3 mg/dL and the Difference of weights ([4]; 25 mg/kg) was -2.3 g. For the same molecule, the BUN value ([4]; 50 mg/kg) was 17.8 mg/dL and the Difference of weights ([4]; 50 mg/kg) was -5.4 g.
